Here are results for 8 molecules from BindingDB's records for doi:10.1016/j.bmcl.2008.10.113 (Ucb Pharma, 2008).

A word on the IC50: it is the point on the concentration scale where inhibition reaches its midpoint. Higher therefore signals weaker potency in that assay.

Molecules are shown by their SMILES.

The test concerns the target Bcl-xL. Put plainly: Inhibition of GST fused Bcl-xL binding to biotinylated 16 mer Bak-BH3 peptide by HTRF-LANCE assay. For orientation: In TR-FRET formats the signal depends on donor and acceptor labels being close together.
In turn, `Cc1cc(C(=O)N(c2ccccc2)c2ccccc2)nn1-c1ccccc1C(=O)N1Cc2ccccc2C[C@H]1CN(C)C` [1-(2-((S)-3-((dimethylamino)methyl)-1,2,3,4-tetrahydroisoquinoline-2-carbonyl)phenyl)-5-methyl-N,N-diphenyl-1H-pyrazole-3-carboxamide] yielded an IC50 of 6.79 µM. This counts as single-digit micromolar.

In turn, `CC(=O)NC[C@@H]1Cc2ccccc2CN1C(=O)c1ccccc1-n1nc(C(=O)N(c2ccccc2)c2ccccc2)cc1C` [1-(2-((S)-3-(acetamidomethyl)-1,2,3,4-tetrahydroisoquinoline-2-carbonyl)phenyl)-5-methyl-N,N-diphenyl-1H-pyrazole-3-carboxamide] had an IC50 of 9.69 µM.

In the case of `Cc1cc(C(=O)N(c2ccccc2)c2ccccc2)nn1-c1ccccc1C(=O)N1Cc2ccccc2C[C@H]1CN` [1-(2-((S)-3-(aminomethyl)-1,2,3,4-tetrahydroisoquinoline-2-carbonyl)phenyl)-5-methyl-N,N-diphenyl-1H-pyrazole-3-carboxamide], the IC50 amounted to 11.4 µM.

In turn, `COC[C@@H]1Cc2ccccc2CN1C(=O)c1ccccc1-n1nc(C(=O)N(c2ccccc2)c2ccccc2)cc1C` [1-(2-((S)-3-(methoxymethyl)-1,2,3,4-tetrahydroisoquinoline-2-carbonyl)phenyl)-5-methyl-N,N-diphenyl-1H-pyrazole-3-carboxamide] showed an IC50 of 5.57 µM.

The molecule `Cc1c(Br)c(C(=O)N(c2ccccc2)c2ccccc2)nn1-c1ccccc1C(=O)N1Cc2ccccc2C[C@H]1CO` [4-bromo-1-(2-((S)-3-(hydroxymethyl)-1,2,3,4-tetrahydroisoquinoline-2-carbonyl)phenyl)-5-methyl-N,N-diphenyl-1H-pyrazole-3-carboxamide] yielded an IC50 of 2.41 µM.

Regarding `Cc1c(Cl)c(C(=O)N(c2ccccc2)c2ccccc2)nn1-c1ccccc1C(=O)N1Cc2ccccc2C[C@H]1CO` [4-chloro-1-(2-((S)-3-(hydroxymethyl)-1,2,3,4-tetrahydroisoquinoline-2-carbonyl)phenyl)-5-methyl-N,N-diphenyl-1H-pyrazole-3-carboxamide], the IC50 was 2.28 µM.

Molecule `CNC[C@@H]1Cc2ccccc2CN1C(=O)c1ccccc1-n1nc(C(=O)N(c2ccccc2)c2ccccc2)cc1C` [5-methyl-1-(2-((S)-3-((methylamino)methyl)-1,2,3,4-tetrahydroisoquinoline-2-carbonyl)phenyl)-N,N-diphenyl-1H-pyrazole-3-carboxamide] registered an IC50 of 12.6 µM.

`CCOC(=O)[C@@H]1Cc2ccccc2CN1C(=O)c1ccccc1-n1nc(C(=O)N(c2ccccc2)c2ccccc2)cc1C` [(3S)-ethyl 2-(2-(3-(diphenylcarbamoyl)-5-methyl-1H-pyrazol-1-yl)benzoyl)-1,2,3,4-tetrahydroisoquinoline-3-carboxylate]: the IC50 is 18 µM. The IC50 values of the last two molecules are within 1.5-fold of each other.
